# Laboratory results taken from PubChem BioAssay AID180 (DTP/NCI, 2004).
# “And” between values parts separate entries of the source, which are not always exact repeats. Equal values may be shown once.
# Tested on: BDF1 mice, Adenocarcinoma 755 s.c., tumor weight T/C
# Test: NCI In Vivo Anticancer Drug Screen. Data for tumor model Adenocarcinoma 755 (subcutaneous) in B6D2F1 (BDF1) mice
# Details: endpoint: mean tumor weight, higher = larger tumour
# Outline: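 Transplantable tumor implanted; mice dosed with compound or vehicle; survival or tumor size recorded; ratio of treated to vehicle control reported.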
# [1] = dose: 25.0 mg/kg/injection, schedule: Q01DX011 (ip), vehicle: carboxymethylcellulose (CMC)
# [2] = dose: 30.0 mg/kg/injection, schedule: Q01DX011 (ip), vehicle: carboxymethylcellulose (CMC)
# [3] = dose: 60.0 mg/kg/injection, schedule: Q01DX011 (ip), vehicle: carboxymethylcellulose (CMC)
# [4] = dose: 15.0 mg/kg/injection, schedule: Q01DX011 (ip), vehicle: methylcellulose (MC)
# [5] = dose: 31.0 mg/kg/injection, schedule: Q01DX011 (ip), vehicle: methylcellulose (MC)
# [6] = dose: 62.0 mg/kg/injection, schedule: Q01DX011 (ip), vehicle: methylcellulose (MC)
# [7] = dose: 125.0 mg/kg/injection, schedule: Q01DX011 (ip), vehicle: methylcellulose (MC)
# [8] = dose: 250.0 mg/kg/injection, schedule: Q01DX011 (ip), vehicle: methylcellulose (MC)
# [9] = dose: 120.0 mg/kg/injection, schedule: Q01DX011 (ip), vehicle: carboxymethylcellulose (CMC)
# [10] = dose: 25.0 mg/kg/injection, schedule: Q01DX011 (ip), vehicle: methylcellulose (MC)
smiles,measurement,setting,value
S=P(Oc1ccccc1)(N1CC1)N1CC1,T/C,"dose: 55.0 mg/kg/injection, schedule: Q01DX011 (ip), vehicle: methylcellulose (MC)",22 % of control and 42 % of control and 44 % of control
same,T/C,"dose: 220.0 mg/kg/injection, schedule: Q01DX011 (ip), vehicle: methylcellulose (MC)",20 % of control
Nc1nc2c(ncn2C2CCCC2)c(=O)[nH]1,T/C,[1],88 % of control
same,T/C,"dose: 75.0 mg/kg/injection, schedule: Q01DX011 (ip), vehicle: carboxymethylcellulose (CMC)",63 % of control
same,T/C,"dose: 225.0 mg/kg/injection, schedule: Q01DX011 (ip), vehicle: carboxymethylcellulose (CMC)",59 % of control
CCC(=O)O[C@H]1CC[C@H]2[C@@H]3CCC4=CC(=O)CC[C@]4(C)[C@H]3CC[C@]12C,T/C,"dose: 125.0 mg/kg/injection, schedule: Q01DX011 (sc), vehicle: steriod suspending solution",101 % of control and 104 % of control
same,T/C,"dose: 400.0 mg/kg/injection, schedule: Q01DX011 (sc), vehicle: steriod suspending solution",69 % of control
same,T/C,"dose: 666.66 mg/kg/injection, schedule: Q01DX011 (sc), vehicle: steriod suspending solution",61 % of control
Cn1c(=O)c2cc[nH]c2n(C)c1=O,T/C,[2],87 % of control
same,T/C,[3],100 % of control
Nc1nc(Cl)cc(Nc2ccccc2Cl)n1,T/C,[4],110 % of control
same,T/C,[5],49 % of control
same,T/C,[6],89 % of control
same,T/C,[7],89 % of control
same,T/C,[8],75 % of control
CNc1nc(SCc2ccc(Cl)cc2Cl)ncc1C,T/C,[4],84 % of control
same,T/C,[5],69 % of control
same,T/C,[6],67 % of control
same,T/C,[7],73 % of control
same,T/C,[8],61 % of control
CCc1c(Cl)nc(N)nc1Nc1ccccc1Cl,T/C,[4],105 % of control
same,T/C,[6],103 % of control
same,T/C,[7],101 % of control
CC(=O)OCC1OC(n2cnc3c(=O)[nH]cnc32)C(OC(C)=O)C1OC(C)=O (configuration not stated),T/C,[2],55 % of control
same,T/C,[3],65 % of control
same,T/C,[9],80 % of control
same,T/C,"dose: 240.0 mg/kg/injection, schedule: Q01DX011 (ip), vehicle: carboxymethylcellulose (CMC)",67 % of control
same,T/C,"dose: 400.0 mg/kg/injection, schedule: Q01DX011 (ip), vehicle: carboxymethylcellulose (CMC)",110 % of control
same,T/C,"dose: 600.0 mg/kg/injection, schedule: Q01DX011 (ip), vehicle: carboxymethylcellulose (CMC)",117 % of control
CN(C)c1nc(Cl)nc2c1nc(Cl)n2C1CCCCO1 (configuration not stated),T/C,[2],102 % of control
same,T/C,[3],85 % of control
same,T/C,[9],68 % of control
OC1C(O)C(O)C2(CO2)C(O)C1O (configuration not stated),T/C,"dose: 300.0 mg/kg/injection, schedule: Q01DX011 (ip), vehicle: saline",99 % of control
CN1c2ccc3ccccc3c2Sc2ccc3ccccc3c21,T/C,"dose: 8.25 mg/kg/injection, schedule: Q01DX011 (ip), vehicle: carboxymethylcellulose (CMC)",53 % of control
same,T/C,"dose: 16.5 mg/kg/injection, schedule: Q01DX011 (ip), vehicle: carboxymethylcellulose (CMC)",71 % of control
same,T/C,[1],59 % of control
same,T/C,"dose: 29.0 mg/kg/injection, schedule: Q01DX011 (ip), vehicle: carboxymethylcellulose (CMC)",66 % of control
same,T/C,"dose: 33.0 mg/kg/injection, schedule: Q01DX011 (ip), vehicle: carboxymethylcellulose (CMC)",46 % of control
same,T/C,"dose: 44.0 mg/kg/injection, schedule: Q01DX011 (ip), vehicle: carboxymethylcellulose (CMC)",80 % of control
same,T/C,"dose: 50.0 mg/kg/injection, schedule: Q01DX011 (ip), vehicle: carboxymethylcellulose (CMC)",69 % of control
same,T/C,"dose: 66.0 mg/kg/injection, schedule: Q01DX011 (ip), vehicle: carboxymethylcellulose (CMC)",29 % of control and 39 % of control and 40 % of control
same,T/C,"dose: 150.0 mg/kg/injection, schedule: Q01DX011 (ip), vehicle: carboxymethylcellulose (CMC)",27 % of control
same,T/C,"dose: 200.0 mg/kg/injection, schedule: Q01DX011 (ip), vehicle: carboxymethylcellulose (CMC)",48 % of control
same,T/C,"dose: 387.5 mg/kg/injection, schedule: Q01DX011 (ip), vehicle: carboxymethylcellulose (CMC)",55 % of control
CCCn1cnc2c(SCC(=O)O)nc(N)nc21,T/C,[10],58 % of control
same,T/C,"dose: 50.0 mg/kg/injection, schedule: Q01DX011 (ip), vehicle: methylcellulose (MC)",37 % of control
same,T/C,"dose: 100.0 mg/kg/injection, schedule: Q01DX011 (ip), vehicle: methylcellulose (MC)",46 % of control
same,T/C,"dose: 200.0 mg/kg/injection, schedule: Q01DX011 (ip), vehicle: methylcellulose (MC)",36 % of control
Cc1ccc(/C=N/Nc2nc3c(c(=O)n(C)c(=O)n3C)n2C)cc1,T/C,[10],77 % of control
same,T/C,"dose: 75.0 mg/kg/injection, schedule: Q01DX011 (ip), vehicle: methylcellulose (MC)",60 % of control
same,T/C,"dose: 225.0 mg/kg/injection, schedule: Q01DX011 (ip), vehicle: methylcellulose (MC)",39 % of control
C=C(C)CSc1ncnc2nc[nH]c12,T/C,"dose: 1.5 mg/kg/injection, schedule: Q01DX011 (ip), vehicle: other",82 % of control
same,T/C,"dose: 3.0 mg/kg/injection, schedule: Q01DX011 (ip), vehicle: other",78 % of control
same,T/C,"dose: 7.0 mg/kg/injection, schedule: Q01DX011 (ip), vehicle: other",22 % of control
same,T/C,"dose: 15.0 mg/kg/injection, schedule: Q01DX011 (ip), vehicle: other",5 % of control
same,T/C,"dose: 30.0 mg/kg/injection, schedule: Q01DX011 (ip), vehicle: other",5 % of control and 14 % of control
same,T/C,"dose: 60.0 mg/kg/injection, schedule: Q01DX011 (ip), vehicle: other",2 % of control
same,T/C,"dose: 120.0 mg/kg/injection, schedule: Q01DX011 (ip), vehicle: other",2 % of control
Cc1cnc(SCc2ccc(Cl)cc2Cl)nc1SCc1ccc(Cl)cc1Cl,T/C,[5],114 % of control
same,T/C,[7],100 % of control
same,T/C,[8],117 % of control
C[C@]12CCC(=O)C=C1CC[C@@H]1[C@@H]2[C@@H](O)C[C@@]2(C)[C@H]1CC[C@]2(O)C(=O)CO,T/C,"dose: 2.5 mg/kg/injection, schedule: Q01DX011 (sc), vehicle: steriod suspending solution",96 % of control
same,T/C,"dose: 4.0 mg/kg/injection, schedule: Q01DX011 (sc), vehicle: steriod suspending solution",49 % of control
same,T/C,"dose: 5.0 mg/kg/injection, schedule: Q01DX011 (sc), vehicle: steriod suspending solution",110 % of control
same,T/C,"dose: 8.7 mg/kg/injection, schedule: Q01DX011 (sc), vehicle: steriod suspending solution",49 % of control
same,T/C,"dose: 10.0 mg/kg/injection, schedule: Q01DX011 (sc), vehicle: steriod suspending solution",56 % of control
same,T/C,"dose: 17.5 mg/kg/injection, schedule: Q01DX011 (sc), vehicle: steriod suspending solution",32 % of control
same,T/C,"dose: 20.0 mg/kg/injection, schedule: Q01DX011 (sc), vehicle: steriod suspending solution",32 % of control and 34 % of control
same,T/C,"dose: 35.0 mg/kg/injection, schedule: Q01DX011 (sc), vehicle: steriod suspending solution",24 % of control
same,T/C,"dose: 40.0 mg/kg/injection, schedule: Q01DX011 (sc), vehicle: steriod suspending solution",11 % of control
same,T/C,"dose: 70.0 mg/kg/injection, schedule: Q01DX011 (sc), vehicle: steriod suspending solution",8 % of control
same,T/C,"dose: 80.0 mg/kg/injection, schedule: Q01DX011 (sc), vehicle: steriod suspending solution",13 % of control
same,T/C,"dose: 140.0 mg/kg/injection, schedule: Q01DX011 (sc), vehicle: steriod suspending solution",1 % of control
C[C@@H]1C[C@H]2[C@@H]3CCC4=CC(=O)C=C[C@]4(C)[C@@]3(F)[C@@H](O)C[C@]2(C)[C@@]1(O)C(=O)CO,T/C,"dose: 7.0 mg/kg/injection, schedule: Q01DX011 (sc), vehicle: steriod suspending solution",19 % of control and 32 % of control and 39 % of control
same,T/C,"dose: 14.0 mg/kg/injection, schedule: Q01DX011 (sc), vehicle: steriod suspending solution",1 % of control and 25 % of control
same,T/C,"dose: 21.0 mg/kg/injection, schedule: Q01DX011 (sc), vehicle: steriod suspending solution",4 % of control
same,T/C,"dose: 28.0 mg/kg/injection, schedule: Q01DX011 (sc), vehicle: steriod suspending solution",10 % of control
CCOC(=O)Sc1ncnc2nc[nH]c12,T/C,"dose: 0.21 mg/kg/injection, schedule: Q01DX011 (ip), vehicle: carboxymethylcellulose (CMC)",87 % of control
same,T/C,"dose: 0.42 mg/kg/injection, schedule: Q01DX011 (ip), vehicle: carboxymethylcellulose (CMC)",41 % of control
same,T/C,"dose: 0.85 mg/kg/injection, schedule: Q01DX011 (ip), vehicle: carboxymethylcellulose (CMC)",50 % of control
same,T/C,"dose: 1.75 mg/kg/injection, schedule: Q01DX011 (ip), vehicle: carboxymethylcellulose (CMC)",3 % of control and 7 % of control and 12 % of control
same,T/C,"dose: 3.5 mg/kg/injection, schedule: Q01DX011 (ip), vehicle: carboxymethylcellulose (CMC)",4 % of control
same,T/C,"dose: 7.0 mg/kg/injection, schedule: Q01DX011 (ip), vehicle: carboxymethylcellulose (CMC)",1 % of control and 5 % of control
same,T/C,"dose: 14.0 mg/kg/injection, schedule: Q01DX011 (ip), vehicle: carboxymethylcellulose (CMC)",2 % of control and 8 % of control
same,T/C,"dose: 28.0 mg/kg/injection, schedule: Q01DX011 (ip), vehicle: carboxymethylcellulose (CMC)",8 % of control
same,T/C,"dose: 56.0 mg/kg/injection, schedule: Q01DX011 (ip), vehicle: carboxymethylcellulose (CMC)",8 % of control
same,T/C,"dose: 112.0 mg/kg/injection, schedule: Q01DX011 (ip), vehicle: carboxymethylcellulose (CMC)",7 % of control
